Experiment: Gas chromatographic headspace measurement of fragrance compounds with and without zinc ricinoleate
Assay type: physicochemical
Settings: 100 ng of each fragrance chemical on a film of 0.5 g zinc ricinoleate; FIG. 4
Excerpt: The effect of zinc ricinoleate [Zn(Ri)2] on the partitioning of compounds into the headspace. Headspace analysis is a sampling technique in which a nonvolatile matrix (liquid or solid) is heated and volatiles are collected as they partition (migrate) into the unfilled volume of the vial (headspace). These compounds are concentrated on an adsorbent tube then injected into the chromatograph where individual compounds are separated.
A sample of volatile compounds are placed into a vial, sealed, and heated for a period of time. The volatile compounds will migrate into the gas headspace. The more volatile the compound, the more concentrated it will be in the headspace. Conversely, the less volatile components will partition into the headspace to a lesser extent thus separating components of interest from the nonvolatile sample matrix (diaper).
For each test compound, 1 microliter of a 100 nanogram/microliter (ng/μl) solution (100 ng of each fragrance chemical) is put into a vial, warmed, purged, and volatiles concentrated in an adsorbent cartridge. The cartridge is desorbed into the GC where individual compounds are separated. A second set of each of the fragrance chemicals is prepared and added to a vial where 0.5 g zinc ricinoleate has been added. […]

zinc ricinoleate
effect on headspace volatility of fragrance chemicals: reduction of volatility
